This experiment has as its system T1, PsMDL2.
T1 construct: gene MDL2
Nature of the experiment: spectrophotometric mandelonitrile cleavage at […] nm, Lineweaver-Burk. The experiment is classed as biochemical, Prunus sibirica. The conditions noted are these: 0.1 M citrate-phosphate buffer pH 5.0, 25 °C; mandelonitrile 0.05-4.0 mM; purified recombinant enzyme.

The term Km denotes the substrate concentration at which the rate is half of its maximum. As for `N#CC(O)c1ccccc1` (stereo not shown) [mandelonitrile], the Michaelis-Menten constant (Km) is 220 µM.

Values taken from article PMC11191352, “Mandelonitrile lyase MDL2-mediated regulation of seed amygdalin and oil accumulation of Prunus Sibirica” (BMC Plant Biology, 2024).
